Values after ≈ are worked out from the molar mass of the structure shown.
Tests used:
Test in all cases: Anti-microbial activity test in vitro (agar dilution MIC)
[1] = tested on: CRSA C1062; assay type: cell-based, Staphylococcus aureus; details: CRSA C1062; Agar Dilution method, Mueller Hinton Agar, 18 hours at 37° C.
Method: (§1) Anti-microbial activity test in vitro
(§2) Strains were cultivated for 18 hours at 37° C. in Agar Dilution method using Mueller Hinton Agar, and then plane plates inoculated with the strains by diluting them two times gradually were aligned in a row. Minimum inhibition concentration (MIC, μg/ml) for the representative compounds of the present invention, Linezolid (LZD) and vancomycin (VAN) were decided through visual observation, and the results are shown in the following tables 2 and 3.

[2] = tested on: CRSA C6043; assay type: cell-based, Staphylococcus aureus; details: CRSA C6043; Agar Dilution method, Mueller Hinton Agar, 18 hours at 37° C.
Method: as §1, §2

[3] = tested on: MRSA C2207; assay type: cell-based, Staphylococcus aureus; details: MRSA C2207; Agar Dilution method, Mueller Hinton Agar, 18 hours at 37° C.
Method: as §1, §2

[4] = tested on: MRSA C5100; assay type: cell-based, Staphylococcus aureus; details: MRSA C5100; Agar Dilution method, Mueller Hinton Agar, 18 hours at 37° C.
Method: as §1, §2

[5] = tested on: MRSA C6068; assay type: cell-based, Staphylococcus aureus; details: MRSA C6068; Agar Dilution method, Mueller Hinton Agar, 18 hours at 37° C.
Method: as §1, §2

[6] = tested on: MSSA C2214; assay type: cell-based, Staphylococcus aureus; details: MSSA C2214; Agar Dilution method, Mueller Hinton Agar, 18 hours at 37° C.
Method: as §1, §2

[7] = tested on: MSSA C7142; assay type: cell-based, Staphylococcus aureus; details: MSSA C7142; Agar Dilution method, Mueller Hinton Agar, 18 hours at 37° C.
Method: as §1, §2

[8] = tested on: E. faecalis ATCC29212; assay type: cell-based; details: E. faecalis ATCC29212; Agar Dilution method, Mueller Hinton Agar, 18 hours at 37° C.
Method: as §1, §2

[9] = tested on: E. faecalis C6288; assay type: cell-based; details: E. faecalis C6288; Agar Dilution method, Mueller Hinton Agar, 18 hours at 37° C.
Method: as §1, §2

[10] = tested on: E. faecalis C6291; assay type: cell-based; details: E. faecalis C6291; Agar Dilution method, Mueller Hinton Agar, 18 hours at 37° C.
Method: as §1, §2

[11] = tested on: E. faecium C2252; assay type: cell-based; details: E. faecium C2252; Agar Dilution method, Mueller Hinton Agar, 18 hours at 37° C.
Method: as §1, §2

[12] = tested on: E. faecium C6301; assay type: cell-based; details: E. faecium C6301; Agar Dilution method, Mueller Hinton Agar, 18 hours at 37° C.
Method: as §1, §2

[13] = tested on: S. aureus ATCC 29213; assay type: cell-based; details: Agar Dilution method, Mueller Hinton Agar, 18 hours at 37° C.
Method: as §1, §2

[14] = tested on: S. epidermidis ATCC12228; assay type: cell-based; details: S. epidermidis ATCC12228; Agar Dilution method, Mueller Hinton Agar, 18 hours at 37° C.
Method: as §1, §2

[15] = tested on: S. epidermidis C2230; assay type: cell-based; details: S. epidermidis C2230; Agar Dilution method, Mueller Hinton Agar, 18 hours at 37° C.
Method: as §1, §2

[16] = tested on: S. epidermidis C2235; assay type: cell-based; details: S. epidermidis C2235; Agar Dilution method, Mueller Hinton Agar, 18 hours at 37° C.
Method: as §1, §2

[17] = tested on: S. pyogenes ATCC8668; assay type: cell-based; details: S. pyogenes ATCC8668; Agar Dilution method, Mueller Hinton Agar, 18 hours at 37° C.
Method: as §1, §2

[18] = tested on: S. pyogenes C6003; assay type: cell-based; details: S. pyogenes C6003; Agar Dilution method, Mueller Hinton Agar, 18 hours at 37° C.
Method: as §1, §2

[19] = tested on: S. pyogenes C6012; assay type: cell-based; details: S. pyogenes C6012; Agar Dilution method, Mueller Hinton Agar, 18 hours at 37° C.
Method: as §1, §2

[20] = tested on: VRE C6487; assay type: cell-based, Enterococcus faecium; details: VRE C6487; Agar Dilution method, Mueller Hinton Agar, 18 hours at 37° C.
Method: as §1, §2

[21] = tested on: VRE C6488; assay type: cell-based, Enterococcus faecium; details: VRE C6488; Agar Dilution method, Mueller Hinton Agar, 18 hours at 37° C.
Method: as §1, §2

Compound | Minimum inhibition concentration (MIC) [1] [µg/mL] | Minimum inhibition concentration (MIC) [2] [µg/mL] | Minimum inhibition concentration (MIC) [3] [µg/mL] | Minimum inhibition concentration (MIC) [4] [µg/mL] | Minimum inhibition concentration (MIC) [5] [µg/mL] | Minimum inhibition concentration (MIC) [6] [µg/mL] | Minimum inhibition concentration (MIC) [7] [µg/mL] | Minimum inhibition concentration (MIC) [8] [µg/mL] | Minimum inhibition concentration (MIC) [9] [µg/mL] | Minimum inhibition concentration (MIC) [10] [µg/mL] | Minimum inhibition concentration (MIC) [11] [µg/mL] | Minimum inhibition concentration (MIC) [12] [µg/mL] | Minimum inhibition concentration (MIC) [13] [µg/mL] | Minimum inhibition concentration (MIC) [14] [µg/mL] | Minimum inhibition concentration (MIC) [15] [µg/mL] | Minimum inhibition concentration (MIC) [16] [µg/mL] | Minimum inhibition concentration (MIC) [17] [µg/mL] | Minimum inhibition concentration (MIC) [18] [µg/mL] | Minimum inhibition concentration (MIC) [19] [µg/mL] | Minimum inhibition concentration (MIC) [20] [µg/mL] | also measured
CC(=O)NC[C@H]1CN(c2ccc(N3CCC(=CC#N)CC3)c(F)c2)C(=O)O1 [Compound 8, N-[[(5S)-3-[3-fluoro-4-(4-cyanomethylidenepiperidinyl)-phenyl]-2-oxo-5-oxazolidinyl]methyl]acetamide] | 2 (≈ 5.37 µM) | 2 (≈ 5.37 µM) | 2 (≈ 5.37 µM) | 2 (≈ 5.37 µM) | 1 (≈ 2.69 µM) | 4 (≈ 10.7 µM) | 2 (≈ 5.37 µM) | 2 (≈ 5.37 µM) | 2 (≈ 5.37 µM) | 2 (≈ 5.37 µM) | 2 (≈ 5.37 µM) | 2 (≈ 5.37 µM) | 2 (≈ 5.37 µM) | 0.5 (≈ 1.34 µM) | 2 (≈ 5.37 µM) | 1 (≈ 2.69 µM) | 0.5 (≈ 1.34 µM) | 2 (≈ 5.37 µM) | 0.5 (≈ 1.34 µM) | 4 (≈ 10.7 µM) | Minimum inhibition concentration (MIC) [21]: 4 µg/mL (≈ 10.7 µM)
CON=C(C)C=C1CCN(c2ccc(N3C[C@H](CNC(C)=O)OC3=O)cc2F)CC1 [Compound 21, N-[[(5S)-3-[3-fluoro-4-(4-(2-methoxyiminopropylidene)-piperidinyl)phenyl]-2-oxo-5-oxazolidinyl]methyl]acetamide] | 32 (≈ 76.5 µM) | 16 (≈ 38.2 µM) | 16 (≈ 38.2 µM) | 8 (≈ 19.1 µM) | 8 (≈ 19.1 µM) | 16 (≈ 38.2 µM) | 16 (≈ 38.2 µM) | 16 (≈ 38.2 µM) | 8 (≈ 19.1 µM) | 8 (≈ 19.1 µM) | 8 (≈ 19.1 µM) | 8 (≈ 19.1 µM) | 16 (≈ 38.2 µM) | 2 (≈ 4.78 µM) | 16 (≈ 38.2 µM) | 8 (≈ 19.1 µM) | 2 (≈ 4.78 µM) | 8 (≈ 19.1 µM) | 2 (≈ 4.78 µM) | 4 (≈ 9.56 µM) | Minimum inhibition concentration (MIC) [21]: 4 µg/mL (≈ 9.56 µM)
CC(=O)NC[C@H]1CN(c2ccc(N3CCC(=CC(C)OC(=O)C(Cl)Cl)CC3)c(F)c2)C(=O)O1 (stereo partly drawn) [Compound 25, N-[[(5S)-3-[3-fluoro-4-(4-(2-(dichloroacetoxy)propylidene)-piperidinyl)-phenyl]-2-oxo-5-oxazolidinyl]methyl]acetamide] | 16 (≈ 31.8 µM) | 16 (≈ 31.8 µM) | 16 (≈ 31.8 µM) | 8 (≈ 15.9 µM) | 8 (≈ 15.9 µM) | 16 (≈ 31.8 µM) | 16 (≈ 31.8 µM) | 8 (≈ 15.9 µM) | 8 (≈ 15.9 µM) | 8 (≈ 15.9 µM) | 8 (≈ 15.9 µM) | 8 (≈ 15.9 µM) | 16 (≈ 31.8 µM) | 2 (≈ 3.98 µM) | 8 (≈ 15.9 µM) | 8 (≈ 15.9 µM) | 2 (≈ 3.98 µM) | 8 (≈ 15.9 µM) | 2 (≈ 3.98 µM) | 4 (≈ 7.96 µM) | Minimum inhibition concentration (MIC) [21]: 4 µg/mL (≈ 7.96 µM)
CCOC(=O)C=C1CCN(c2ccc(N3C[C@H](CNC(C)=O)OC3=O)cc2F)CC1 [Compound 11, N-[[(5S)-3-[3-fluoro-4-(4-ethoxycarbonylmethylidene-piperidinyl)phenyl]-2-oxo-5-oxazolidinyl]methyl]acetamide] | 8 (≈ 19.1 µM) | 8 (≈ 19.1 µM) | 8 (≈ 19.1 µM) | 8 (≈ 19.1 µM) | 8 (≈ 19.1 µM) | 16 (≈ 38.1 µM) | 16 (≈ 38.1 µM) | 8 (≈ 19.1 µM) | 8 (≈ 19.1 µM) | 8 (≈ 19.1 µM) | 8 (≈ 19.1 µM) | 8 (≈ 19.1 µM) | 16 (≈ 38.1 µM) | 2 (≈ 4.77 µM) | 8 (≈ 19.1 µM) | 4 (≈ 9.54 µM) | 2 (≈ 4.77 µM) | 8 (≈ 19.1 µM) | 2 (≈ 4.77 µM) | 8 (≈ 19.1 µM) | Minimum inhibition concentration (MIC) [21]: 8 µg/mL (≈ 19.1 µM)
N-[[(5S)-3-[3-fluoro-4-(4-dicyanomethylidenepiperidinyl) phenyl]-2-oxo-5-oxazolidinyl]methyl]acetamide [Compound 6] | 4 | 4 | 4 | 4 | 2 | 4 | 4 | 4 | 4 | 4 | 4 | 2 | 2 | 1 | 2 | 2 | 1 | 4 | 1 | 4 | Minimum inhibition concentration (MIC) [21]: 2 µg/mL

— US20040087633A1, “Methylidene oxazolidinone compound and preparation method thereof” (Korea Institute of Science and Technology, priority 2002, published 2004)
